This note sets out measurements from US10294218B2 (VIROSTATICS SRL, priority 2012, dated 2019).

Data set [1] has as its system laboratory strain of HIV-1. As to the kind of experiment: Antiviral activity against HIV (AV), p24 in infected activated primary T cells. The data set is classed as cell-based. The settings on record: for IC50: Human immunodeficiency virus 1, T-cell, read-out: AV50 (Inhibitory concentration 50% for antiviral activity); for antiviral and antiproliferative activity and cytotoxicity profile (in words): summary of AV, AP and cytotoxicity assays. As for the experimental part: Activated primary T cells are infected with a laboratory strain of HIV-1, then cultured and exposed to different concentrations of the test compounds. HIV replication is analysed by measuring the viral protein p24 and expressed as percentage of untreated control. Inhibition of viral replication (AV) is then calculated (AV=100 minus the % p24 compared to control, AV of control=0%). Inhibitory concentration 50% for antiviral activity (AV50) is calculated.
(§1) In Tables 2, 3 and 4, ND means Not Determined.

In the next data set the test system is Primary T cells. As to the kind of experiment: Antiproliferative activity (AP), mitotic index by flow cytometry. The data set is classed as cell-based. The note with it: T-cell, read-out: AP50 (Inhibitory concentration 50% for antiproliferative capacity). The protocol:
Primary T cells are cultured and exposed to different concentrations of the test compounds. Cell proliferation is analysed by measuring mitotic index (ie the number of cell divisions a population of cells undergoes) through flow cytometry based techniques. Mitotic index is expressed as percentage of untreated control. Inhibition of cell proliferation (AP) is then calculated (AP=100 minus % mitotic index compared to control, AP of control=0%). Inhibitory concentration 50% for antiproliferative capacity (AP50) is calculated.
as §1
(A flow cytometer gives signals particle by particle.)

Each structure is given as a SMILES string. Read-outs that look alike come from different tables or passages of the source.

As to `COc1ccc(Nc2cc(-c3ccccc3OC)ncn2)cc1NS(C)(=O)=O` [Example 9, N-(2-Methoxy-5-(6-(2-methoxyphenyl)pyrimidin-4-ylamino)phenyl)methanesulfonamide], the IC50 in data set [1] was less than 1500 nM; in the data set on Primary T cells (primary T cells, mitotic index) it was more than 1500 nM.

As to `COc1ccc(Nc2cc(-c3ccccc3OC)ncn2)cc1CNS(C)(=O)=O` [Example 4, N-(2-Methoxy-5-(6-(2-methoxyphenyl)pyrimidin-4-ylamino)benzyl)methanesulfonamide], the IC50 in the data set on Primary T cells (primary T cells, mitotic index) was 1500 nM.

For `COc1ccc(Nc2cc(-c3ccccc3OC)ncn2)cc1N` [Example 41, 4-Methoxy-N1-(6-(2-methoxyphenyl)pyrimidin-4-yl)benzene-1,3-diamine], the IC50 in data set [1] worked out at 60 nM; with Primary T cells it was 80 nM. Further, in data set [1], the “antiviral and antiproliferative activity and cytotoxicity profile (in words)” value was “good antiviral and antiproliferative activity and a good cytotoxicity profile”.

Consider `COc1ccc(Nc2cc(-c3ccccc3OC)ncn2)cc1NS(=O)(=O)NC1CCCCC1` [Example 13, (2-Methoxy-5-(6-(2-methoxyphenyl)pyrimidin-4-ylamino)phenyl) (cyclohexylsulfamoyl)amine], for which, in data set [1], the IC50 was found to be 300 nM; the “antiviral and antiproliferative activity and cytotoxicity profile (in words)” value is “good antiviral and antiproliferative activity and a good cytotoxicity profile”. Besides, the IC50 in the data set with Primary T cells (primary T cells, mitotic index) stood at 600 nM.

In the case of `CCOc1ccc(F)cc1-c1cc(Nc2cc(F)c(OC)c(C(N)=O)c2)ncn1` [Example 142, 5-[6-(2-Ethoxy-5-fluoro-phenyl)-pyrimidin-4-ylamino]-3-fluoro-2-methoxy-benzamide], in data set [1], the IC50 was 40 nM; the “antiviral and antiproliferative activity and cytotoxicity profile (in words)” value was “good antiviral and antiproliferative activity and a good cytotoxicity profile”. Further, the IC50 with Primary T cells was 40 nM.

Take `COc1ccc(Nc2cc(-c3ccccc3OC)ncn2)cc1CNCc1ccccc1` [Example 1, N-(3-((Benzylamino)methyl)-4-methoxyphenyl)-6-(2-methoxyphenyl)pyrimidin-4-amine]: the IC50 in the data set on Primary T cells amounted to 2500 nM.

On to `COc1ccc(Nc2cc(-c3ccccc3OC)ncn2)cc1Cn1cnc2ccccc21` [Example 31, N-(3-((1H-Benzo[d]imidazol-1-yl)methyl)-4-methoxyphenyl)-6-(2-methoxyphenyl)pyrimidin-4-amine], for which the IC50 came to 200 nM in data set [1] and 350 nM in the data set on Primary T cells. For the same molecule, the “antiviral and antiproliferative activity and cytotoxicity profile (in words)” value in data set [1] was “good antiviral and antiproliferative activity and a good cytotoxicity profile”.

As to `CCOc1cc(F)ccc1-c1cc(Nc2cc(C(N)=O)c(OC)cc2F)ncn1` [Example 147, 5-[6-(2-Ethoxy-4-fluoro-phenyl)-pyrimidin-4-ylamino]-4-fluoro-2-methoxy-benzamide], in data set [1], the IC50 is 5 nM; the “antiviral and antiproliferative activity and cytotoxicity profile (in words)” value was “good antiviral and antiproliferative activity and a good cytotoxicity profile”. Besides, the IC50 in the data set on Primary T cells was determined as 40 nM.

Regarding `COc1ccc(Nc2cc(-c3ccccc3OC)ncn2)cc1C(N)=O` [Example 45, 2-methoxy-5-(6-(2-methoxyphenyl)pyrimidin-4-ylamino)benzamide], in data set [1], the IC50 is 50 nM; the “antiviral and antiproliferative activity and cytotoxicity profile (in words)” value was “good antiviral and antiproliferative activity and a good cytotoxicity profile”. In addition, in the data set with Primary T cells, the IC50 came out at 80 nM.

Take `CCOC(=O)c1cc(Nc2cc(-c3ccccc3OC)ncn2)ccc1Cl` [Example 14, Ethyl 2-chloro-5-(6-(2-methoxyphenyl)pyrimidin-4-ylamino)benzoate]: the IC50 in the data set on Primary T cells (primary T cells, mitotic index) was more than 500 nM.

For the molecule `COc1ccc(Nc2cc(-c3ccccc3OC)ncn2)cc1C(=O)NN` [Example 33, 2-Methoxy-5-(6-(2-methoxyphenyl)pyrimidin-4-ylamino)benzohydrazide], the IC50 in the data set on Primary T cells worked out at 2000 nM.

Consider `COc1ccccc1-c1cc(Nc2ccc(Cl)c(C(=O)NN)c2)ncn1` [Example 7, 2-Chloro-5-(6-(2-methoxyphenyl)pyrimidin-4-ylamino)benzohydrazide], for which the IC50 in the data set with Primary T cells (primary T cells, mitotic index) came to 4000 nM.

Regarding `COc1ccccc1-c1cc(Nc2ccc(Cl)c(C(=O)N3CCCC3)c2)ncn1` [Example 15, (2-Chloro-5-(6-(2-methoxyphenyl)pyrimidin-4-ylamino)phenyl)(pyrrolidin-1-yl)methanone], the IC50 in the data set with Primary T cells (primary T cells, mitotic index) is more than 500 nM.

Turning to `COc1ccccc1-c1cc(Nc2cc(F)c(OC)c(C(N)=O)c2)ncn1` [Example 137, 3-Fluoro-2-methoxy-5-[6-(2-methoxy-phenyl)-pyrimidin-4-ylamino]-benzamide], the IC50 in data set [1] was more than 2000 nM.

With `CCOc1cc(F)ccc1-c1cc(Nc2cc(N)c(OC)c(F)c2)ncn1` [Example 89, N^1-[6-(2-Ethoxy-4-fluoro-phenyl)-pyrimidin-4-yl]-5-fluoro-4-methoxy-benzene-1,3-diamine], the IC50 in data set [1] is more than 400 nM.

Take `COc1ccccc1-c1cc(Nc2ccc(C(N)=O)c(Cl)c2)ncn1` [Example 132, 2-Chloro-4-[6-(2-methoxy-phenyl)-pyrimidin-4-ylamino]-benzamide]: the IC50 in data set [1] amounted to 5000 nM.

For `COc1ccccc1-c1cc(Nc2ccc(N3CCN(C)CC3)c(Cn3cnc4ccccc43)c2)ncn1` [Example 2, N-(3-((1H-Benzo[d]imidazol-1-yl)methyl)-4-(4-methylpiperazin-1-yl)phenyl)-6-(2-methoxyphenyl)pyrimidin-4-amine], the IC50 in the data set on Primary T cells (primary T cells, mitotic index) worked out at 400 nM.

For the molecule `CCOc1ccccc1-c1cc(Nc2ccc(OC)c(N)c2)ncn1` [Example 62, N^1-[6-(2-Ethoxy-phenyl)-pyrimidin-4-yl]-4-methoxy-benzene-1,3-diamine], in data set [1], the IC50 was less than 80 nM; the “antiviral and antiproliferative activity and cytotoxicity profile (in words)” value was “good antiviral and antiproliferative activity and a good cytotoxicity profile”.

With `COc1ccccc1-c1cc(Nc2ccc(OC)c([N+](=O)[O-])c2)ncn1` [Example 11, N-(4-Methoxy-3-nitrophenyl)-6-(2-methoxyphenyl)pyrimidin-4-amine], the IC50 in the data set on Primary T cells (primary T cells, mitotic index) is more than 1500 nM.

On to `COc1ccccc1-c1cc(Nc2ccc(Cl)c(C(N)=O)c2)ncn1` [Example 44, 2-Chloro-5-(6-(2-methoxyphenyl)pyrimidin-4-ylamino)benzamide], for which the IC50 in the data set with Primary T cells (primary T cells, mitotic index) came out at 5000 nM.

Turning to `COc1ccc(-c2cc(Nc3ccc(OC)c(N)c3)ncn2)cc1` [Example 66, 4-Methoxy-N^1-[6-(4-methoxy-phenyl)-pyrimidin-4-yl]-benzene-1,3-diamine], the IC50 in data set [1] is more than 10000 nM.

For `CCOc1ccc(F)cc1-c1cc(Nc2ccc(OC)c(C(N)=O)c2)ncn1` [Example 131, 5-[6-(2-Ethoxy-5-fluoro-phenyl)-pyrimidin-4-ylamino]-2-methoxy-benzamide], in data set [1], the IC50 is less than 80 nM; the “antiviral and antiproliferative activity and cytotoxicity profile (in words)” value is “good antiviral and antiproliferative activity and a good cytotoxicity profile”.

`CCOc1ccccc1-c1cc(Nc2cc(F)c(OC)c(C(N)=O)c2)ncn1` [Example 141, 5-[6-(2-Ethoxy-phenyl)-pyrimidin-4-ylamino]-3-fluoro-2-methoxy-benzamide]: in data set [1], the IC50 amounted to 80 nM; the “antiviral and antiproliferative activity and cytotoxicity profile (in words)” value is “good antiviral and antiproliferative activity and a good cytotoxicity profile”.

As to `COc1ccccc1-c1cc(Nc2ccc(N(C)C)c(Cn3cnc4ccccc43)c2)ncn1` [Example 42, 2-((1H-Benzo[d]imidazol-1-yl)methyl)-N4-(6-(2-methoxyphenyl)pyrimidin-4-yl)-N1,N1-dimethylbenzene-1,4-diamine], the IC50 in the data set on Primary T cells was 1800 nM.

In the case of `COc1ccc(Nc2cc(-c3ccccc3OC)ncn2)cc1CNc1ccccc1` [Example 34, N-(4-Methoxy-3-((phenylamino)methyl)phenyl)-6-(2-methoxyphenyl)pyrimidin-4-amine], the IC50 in the data set on Primary T cells was more than 5000 nM.

Take `COc1ccc(Nc2cc(-c3cc(F)ccc3OC)ncn2)cc1O` [Example 122, 5-[6-(5-Fluoro-2-methoxy-phenyl)-pyrimidin-4-ylamino]-2-methoxy-phenol]: the IC50 in data set [1] worked out at 80 nM.

Turning to `COc1cc(F)ccc1-c1cc(Nc2cc(F)c(OC)c(C(N)=O)c2)ncn1` [Example 138, 3-Fluoro-5-[6-(4-fluoro-2-methoxy-phenyl)-pyrimidin-4-ylamino]-2-methoxy-benzamide], the IC50 in data set [1] is more than 400 nM.

Regarding `COc1ccc(Nc2cc(-c3cc(F)c(F)cc3OC)ncn2)cc1N` [Example 83, N^1-[6-(4,5-Difluoro-2-methoxy-phenyl)-pyrimidin-4-yl]-4-methoxy-benzene-1,3-diamine], in data set [1], the IC50 was 7 nM; the “antiviral and antiproliferative activity and cytotoxicity profile (in words)” value was “good antiviral and antiproliferative activity and a good cytotoxicity profile”.

For the molecule `CCOc1cc(F)ccc1-c1cc(Nc2ccc(OC)c(N)c2)ncn1` [Example 73, N^1-[6-(2-Ethoxy-4-fluoro-phenyl)-pyrimidin-4-yl]-4-methoxy-benzene-1,3-diamine], in data set [1], the IC50 came to 0.2 nM; the “antiviral and antiproliferative activity and cytotoxicity profile (in words)” value is “good antiviral and antiproliferative activity and a good cytotoxicity profile”.

For `COc1ccc(Nc2cc(-c3ccc(F)cc3OC(C)C)ncn2)cc1N` [Example 86, N^1-[6-(4-Fluoro-2-isopropoxy-phenyl)-pyrimidin-4-yl]-4-methoxy-benzene-1,3-diamine], the IC50 in data set [1] was found to be 100 nM.

`COc1ccccc1-c1cc(Nc2ccc(O)c([N+](=O)[O-])c2)ncn1` [Example 12, 4-(6-(2-methoxyphenyl)pyrimidin-4-ylamino)-2-nitrophenol]: the IC50 in the data set with Primary T cells (primary T cells, mitotic index) is more than 1500 nM.
